Measured values from the supplement of paper PMC4862054.
Values joined by “and” are separate entries in the source; they are usually repeats but may differ in a detail not shown here. Identical values can stand only once.

Columns and labels:
Details in all cases: incubation time: 72 h
CAL-148 [1] = assay: normalised viability (% of control), CellTiter-Blue; higher = more viable cells (about 100 = DMSO control)
Procedure: (§1)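 DSRT, CellTiter-Blue viability, 72 h incubation. Signal is normalised to DMSO and benzethonium chloride controls. Value is the normalised response at dose 7.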

HDQ-P1 [2] = assay: as above
Procedure: as §1

DU-4475 [3] = assay: as above
Procedure: as §1

MDA-MB-453 [4] = assay: as above
Procedure: as §1

CAL-51 [5] = assay: as above
Procedure: as §1

CAL-85-1 [6] = assay: as above
Procedure: as §1

BT-549 = assay: normalised response (% of control), CellTox Green; higher = less cell death (100 = DMSO, 0 = benzethonium chloride kill control)
How it was run: (§2)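 Breast cancer cell lines were exposed for 72 h in 384-well plates to compound at 5 concentrations, 10-fold apart, covering a 10,000-fold range fixed for each compound. Plates were read for CellTox Green fluorescence and CellTiter-Glo luminescence and normalised to 0.1 % DMSO (100) and a positive kill control (0). Each value is the normalised signal at one concentration of the series.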

CAL-148 [7] = assay: as above
How it was run: as §2

CAL-120 = assay: as above
How it was run: as §2

BT-474 = assay: as above
How it was run: as §2

MDA-MB-436 = assay: as above
How it was run: as §2

HCC1143 = assay: as above
How it was run: as §2

Hs578T = assay: as above
How it was run: as §2

HCC1937 = assay: as above
How it was run: as §2

HDQ-P1 [8] = assay: as above
How it was run: as §2

DU-4475 [9] = assay: as above
How it was run: as §2

MFM-223 = assay: as above
How it was run: as §2

MDA-MB-231 = assay: as above
How it was run: as §2

MCF-10A = assay: as above
How it was run: as §2

MDA-MB-453 [10] = assay: as above
How it was run: as §2

MDA-MB-468 = assay: as above
How it was run: as §2

CAL-51 [11] = assay: as above
How it was run: as §2

HCC1599 [12] = assay: as above
How it was run: as §2

CAL-85-1 [13] = assay: as above
How it was run: as §2

HDQ-P1 [14] = assay: drug sensitivity score (DSS), CellTiter-Glo (DSS (AUC-based score)); higher = stronger drug effect (viability inhibition or cytotoxicity); extreme values may be limits of the assay
How it was run: (§3)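 Normalisation on every plate relied on 0.1 % DMSO and a positive kill control. The plates, 384-well format, held compound at 5 concentrations 10-fold apart across a compound-specific 10,000-fold range, and breast cancer cell lines in 20 µl suspension were incubated on them for 72 h before CellTox Green and then CellTiter-Glo readings. The drug sensitivity score derives from the area under the fitted dose-response curve.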

SK-BR-3 = assay: as above
How it was run: as §3

HCC1599 [15] = assay: as above
How it was run: as §3

CAL-85-1 [16] = assay: as above
How it was run: as §3

SMILES	normalised viability (CAL-148 [1])	normalised viability (HDQ-P1 [2])	normalised viability (DU-4475 [3])	normalised viability (MDA-MB-453 [4])	normalised viability (CAL-51 [5])	normalised viability (CAL-85-1 [6])	normalised response (BT-549) [%]	normalised response (CAL-148 [7]) [%]	normalised response (CAL-120) [%]	normalised response (BT-474) [%]	normalised response (MDA-MB-436) [%]	normalised response (HCC1143) [%]	normalised response (Hs578T) [%]	normalised response (HCC1937) [%]	normalised response (HDQ-P1 [8]) [%]	normalised response (DU-4475 [9]) [%]	normalised response (MFM-223) [%]	normalised response (MDA-MB-231) [%]	normalised response (MCF-10A) [%]	normalised response (MDA-MB-453 [10]) [%]	normalised response (MDA-MB-468) [%]	normalised response (CAL-51 [11]) [%]	normalised response (HCC1599 [12]) [%]	normalised response (CAL-85-1 [13]) [%]	drug sensitivity score (HDQ-P1 [14])	drug sensitivity score (SK-BR-3)	drug sensitivity score (HCC1599 [15])	drug sensitivity score (CAL-85-1 [16])
COc1cc2c(cc1O)CC[C@@H]1[C@@H]2CC[C@]2(C)[C@@H](O)CC[C@@H]12 [2-methoxyestradiol] (1000 nM)	89.7%	83%	89.5%	53.3%	107%	86.8%	96.5	85.8	91.8	77.8	85.5	99.8	84.6	111	108	96.6	64.7	34.1	98.5	108	92.5	98.3	93.5	83.5	–	–	–	–
Nc1ncn([C@@H]2O[C@H](CO)[C@@H](O)[C@H]2O)c(=O)n1 [Azacitidine] (1000 nM)	97.3%	106%	116%	98.9%	96.7%	91.4%	108	84.3	101	80.4	97.7	–	–	–	59.9	97	89.6	93.2	101	110	33.9	105	96.4	98.4	–	–	–	–
Nc1nc2[nH]cnc2c(=S)[nH]1 [Thioguanine] (1000 nM)	93.4%	85.2%	117%	95.2%	108%	79.2%	108	94	103	96.4	101	–	103	114	109	104	92.8	48.4	98.7	106	121	102	97.8	112	–	–	–	–
CC(=O)O[C@@]12CO[C@@H]1C[C@H](O)[C@@]1(C)C(=O)[C@H](O)C3=C(C)[C@@H](OC(=O)[C@H](O)[C@@H](NC(=O)OC(C)(C)C)c4ccccc4)C[C@@](O)([C@@H](OC(=O)c4ccccc4)[C@H]21)C3(C)C [Docetaxel] (100 nM)	22.7% and 19.8%	34.2% and 38%	13.8% and 9.08%	26.2% and 23.4%	18.2% and 13.8%	32.9% and 29.5%	69.3	83.2	86.7	57.1	69	76	49.4	102	75.8	95.2	59.5	-12.5	34.9	100	145	16.6	82.8	19.7	–	–	–	–
Cn1cc(C2=Nc3cc(NC(=O)C(N)C4CCCCC4)cc4c3C2=CNNC4=O)cn1 (stereo not given) (1000 nM)	62.4%	67.1%	72.1%	36.9%	87.8%	64%	95.4	86.4	80.1	92.3	85	4.8	-123	113	97.4	95.2	87.6	54.1	-64.4	91.8	126	56	73.3	45.8	–	–	–	–
CC1(C)CNc2cc(NC(=O)c3cccnc3NCc3ccncc3)ccc21 [Motesanib] (1000 nM)	90.3%	78.1%	99.5%	75.4%	105%	79.8%	123	103	99.5	98	79	103	83.6	–	108	100	97	97.7	95.4	101	108	96.1	97.3	91.8	–	–	–	–
Oc1ncnc2[nH]ncc12 [Allopurinol] (1000 nM)	124%	88%	109%	100%	91.5%	96.3%	103	106	95	100	107	–	101	89.9	106	96.8	103	–	94.7	63	80.5	118	97	99	–	–	–	–
CC1=C2C[C@H]3[C@@H](CC=C4C[C@@H](O)CC[C@@]43C)[C@@H]2CC[C@]12O[C@@H]1C[C@H](C)CN[C@H]1[C@H]2C [Cyclopamine] (1000 nM)	119%	127%	121%	86.8%	110%	92.2%	108	95.1	101	101	99.3	100	104	70	96.9	101	75.1	119	108	103	78.1	95.5	104	101	–	–	–	–
O=NN(CCCl)C(=O)NCCCl [Carmustine] (1000 nM)	105%	105%	102%	105%	96.9%	88.4%	96.9	98	95.8	97.3	99.5	105	106	112	99	96.9	66.4	105	92.1	103	86	115	94.9	102	–	–	–	–
O=C1CN2Cc3c(ccc(Cl)c3Cl)N=C2N1 [Anagrelide] (1000 nM)	104%	105%	113%	103%	73.6%	86.1%	97	56.1	97.8	97	87.3	–	83.8	88.6	–	97.4	102	86.2	104	105	137	59.7	94.3	103	–	–	–	–
CC(=O)c1c(C)c2cnc(Nc3ccc(N4CCNCC4)cn3)nc2n(C2CCCC2)c1=O [Palbociclib]	–	–	–	–	–	–	–	–	–	–	–	–	–	–	–	–	–	–	–	–	–	–	–	–	0	5.42	0	0
Nc1nc2[nH]cnc2c(=S)[nH]1 [Thioguanine]	–	–	–	–	–	–	–	–	–	–	–	–	–	–	–	–	–	–	–	–	–	–	–	–	7.16	0	5.01	6.09
CC[C@@H]1C(=O)OC[C@@H]1Cc1cncn1C [Pilocarpine]	–	–	–	–	–	–	–	–	–	–	–	–	–	–	–	–	–	–	–	–	–	–	–	–	0	0	0	0
O=NN(CCCl)C(=O)NCCCl [Carmustine]	–	–	–	–	–	–	–	–	–	–	–	–	–	–	–	–	–	–	–	–	–	–	–	–	0	0	0	0
CC[C@@H]1C(=O)OC[C@@H]1Cc1cncn1C [Pilocarpine] (4000 nM)	101%	121%	95.5%	101%	108%	89.5%	112	73.7	99.3	96	81.4	72.1	70.9	–	–	95.3	69.2	97.8	101	101	66.5	104	92.5	95.5	–	–	–	–
CC(C)(C)c1cnc(CSc2cnc(NC(=O)C3CCNCC3)s2)o1 [SNS-032]	–	–	–	–	–	–	–	–	–	–	–	–	–	–	–	–	–	–	–	–	–	–	–	–	21.6	25.6	18.5	25.1
CC1(C)CCC(CN2CCN(c3ccc(C(=O)NS(=O)(=O)c4ccc(NCC5CCOCC5)c([N+](=O)[O-])c4)c(Oc4cnc5[nH]ccc5c4)c3)CC2)=C(c2ccc(Cl)cc2)C1 [ABT-199]	–	–	–	–	–	–	–	–	–	–	–	–	–	–	–	–	–	–	–	–	–	–	–	–	0	0	0	0
Cc1ccc([N+](=O)[O-])cc1S(=O)(=O)N(C)/N=C/c1cnc2ccc(Br)cn12 [PIK-75]	–	–	–	–	–	–	–	–	–	–	–	–	–	–	–	–	–	–	–	–	–	–	–	–	25.5	30.4	23.1	29
COc1cc2c(cc1O)CC[C@@H]1[C@@H]2CC[C@]2(C)[C@@H](O)CC[C@@H]12 [2-methoxyestradiol]	–	–	–	–	–	–	–	–	–	–	–	–	–	–	–	–	–	–	–	–	–	–	–	–	0.369	5.71	2.6	5.61
